# Test results as given in EP0978280A1, “2-[…]” (priority 1997, dated 1998).
# Where a name gives a salt, the structure may show the parent alone.
# Biological target: T1, Nicotinic acetylcholine receptor (Rattus norvegicus, UniProt P09483+P12390)
# T1 construct: the rat was decapitated, and the whole brain was removed and homogenized; from tissue; host or cells: rat whole brain membrane fraction
# Settings: 10 nM of the test drug; 1 nM of ^3H-cytidine; rat whole brain membrane fraction; 4°C for 75 min; nonspecific binding with 10 µM (-)nicotine
# Experimental: Nicotinic acetylcholine receptor binding assay
# The membrane fraction was prepared in accordance with the protocol described in Brain Res., 100, 81-87 (1977). Thus, the rat was decapitated, and the whole brain was removed and homogenized with 15 volumes of cold 0.32 M aqueous sucrose solution using a Teflon homogenizer. The homogenate was centrifuged at 4°C and 1,000 x g for 10 mm. and the supernatant obtained was centrifuged at 4°C and 20,000 x g for 20 min. Then, ice-cold distilled water was added to the pellet, and the pellet was suspended using Hiscotron®. The suspension was centrifuged at 4°C and 8,000 x g for 20 min. and the supernatant and the buffy coat layer were recovered and centrifuged again at 4°C and 40,000 x g for 20 min. The pellet obtained was suspended in cold distilled water and stored at -80°C until used.
# The receptor binding experiment was performed in accordance with the protocol described in J. Pharamcol. Exp. Ther., 270, 310-318 (1994). Thus, the rat whole brain membrane fraction (ca 200 µg) was incubated in BSS-Tris buffer [composition mM: NaCl 120, KCl 5, CaCl22, MgCl22, Tris-HCl 50 (pH=7.4, at 4°C)] containing 1 nM of ^3H-cytidine and 10 nM of the test drug at 4°C for 75 min. To stop the reaction, 4 ml of cold BSS-Tris buffer was added and the reaction mixture was immediately suction-filtered on GF/B glass fiber filter paper which had been pre-soaked in 0.5% polyethyleneimine. The filter paper was recovered, 4 ml of ACS-II (Amersham, TM) was added, and the ^3H radioactivity was determined with a scintillation counter. Based on the value (specific binding) obtained after subtraction of the ^3H-binding (nonspecific binding) amount in the presence of 10 µM (-)nicotine, the inhibition rate of ^3H-cytidine binding at the 10 nM concentration of each drug was calculated.
# T1 sequence (P09483 31-630): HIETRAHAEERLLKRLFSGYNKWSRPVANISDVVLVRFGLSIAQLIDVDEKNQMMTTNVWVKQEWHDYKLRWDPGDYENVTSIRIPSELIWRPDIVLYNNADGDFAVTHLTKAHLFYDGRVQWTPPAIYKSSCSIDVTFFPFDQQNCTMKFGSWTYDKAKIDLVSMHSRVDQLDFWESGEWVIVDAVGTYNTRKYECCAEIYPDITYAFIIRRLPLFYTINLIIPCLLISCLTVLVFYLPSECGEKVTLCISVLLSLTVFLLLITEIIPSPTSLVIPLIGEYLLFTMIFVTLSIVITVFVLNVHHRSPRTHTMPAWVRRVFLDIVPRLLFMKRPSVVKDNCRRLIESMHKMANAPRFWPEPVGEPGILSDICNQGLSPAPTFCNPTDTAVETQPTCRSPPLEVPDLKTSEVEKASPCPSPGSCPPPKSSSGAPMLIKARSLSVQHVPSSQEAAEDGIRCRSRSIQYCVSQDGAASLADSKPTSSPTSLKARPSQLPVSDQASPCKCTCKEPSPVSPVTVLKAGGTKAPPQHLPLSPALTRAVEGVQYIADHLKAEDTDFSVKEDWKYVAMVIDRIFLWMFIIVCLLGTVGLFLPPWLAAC
# T1 sequence (P12390 25-500): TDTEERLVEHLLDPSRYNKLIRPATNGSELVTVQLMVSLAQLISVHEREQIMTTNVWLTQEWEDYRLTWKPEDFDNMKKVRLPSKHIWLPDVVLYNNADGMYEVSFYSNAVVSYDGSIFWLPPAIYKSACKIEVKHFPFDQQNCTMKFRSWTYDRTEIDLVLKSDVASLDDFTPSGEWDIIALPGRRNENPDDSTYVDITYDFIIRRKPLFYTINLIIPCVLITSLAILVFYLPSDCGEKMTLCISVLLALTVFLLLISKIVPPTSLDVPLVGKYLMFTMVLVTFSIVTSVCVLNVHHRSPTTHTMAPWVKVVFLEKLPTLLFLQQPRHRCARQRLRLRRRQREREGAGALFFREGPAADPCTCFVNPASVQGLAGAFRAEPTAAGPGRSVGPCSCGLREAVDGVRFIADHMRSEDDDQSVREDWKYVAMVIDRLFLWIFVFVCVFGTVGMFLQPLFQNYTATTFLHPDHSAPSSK
row,Structure (SMILES),Inhibition of ^3H-Cytidine binding [%]
1,"c1cncc(C2CC3CCC2NC3)c1 (stereo not drawn) [Example 1, Syn-6-(3-pyridyl)-2-azabicyclo[2. 2. 2]octane oxalate]",94
2,"c1ncc(C2CC3CCC2NC3)cn1 (stereo not drawn) [Example 16, Syn-6-(5-pyrimidinyl)-2-azabicyclo[2. 2. 2]octane]",93
3,"Cc1cc(C2CC3CCC2NC3)on1 (stereo not drawn) [Example 18, Syn-6-(3-methyl-5-isoxazolyl)-2-azabicyclo[2. 2. 2]octane]",84
4,"C1=C(c2cnccn2)C2CCC1CN2 (stereo not drawn) [Example 23, 6-(2-Pyrazinyl)-2-azabicyclo[2. 2. 2]oct-5-ene]",39
5,"Brc1cncc(C2=CC3CCC2CN3)c1 (stereo not drawn) [Example 24, 5-(5-Bromo-3-pyridyl)-2-azabicyclo[2. 2. 2]oct-5-ene]",92
6,"C#Cc1cncc(C2CC3CCC2NC3)c1 (stereo not drawn) [Example 28, Syn-6-(5-ethynyl-3-pyridyl)-2-azabicyclo[2. 2. 2]octane]",91
7,"c1ccc(-c2cncc(C3CC4CCC3NC4)c2)cc1 (stereo not drawn) [Example 29, Syn-6-(5-phenyl-3-pyridyl)-2-azabicyclo[2. 2. 2]octane]",86
8,"c1cncc(C2CC3CC2CN3)c1 (stereo not drawn) [Example 30, Syn-5-(3-pyridyl)-2-azabicyclo[2. 2. 1]heptane]",87
9,"c1cncc(C2CC3CCCC2NC3)c1 (stereo not drawn) [Example 31, Syn-8-(3-pyridyl)-7-azabicyclo[3. 2. 2.]nonane]",84
